From publication PMC9361468 (RSC Advances, 2022)
Read-outs that look alike come from different tables or passages of the source.

Legend:
[1] = Experimental pKa, common substituted piperazines, mean ± SD of 3 experiments
[2] = Experimental pKa, PROTAC precursors, mean ± SD of 3 experiments

Structure (SMILES)	pKa (physchem)	% protonation state at pH = 7.5, NI: not-ionized state (PROTAC precursors)	% protonation state at pH = 7.5, P: single protonation state (PROTAC precursors)	other results
COC(=O)CCCCCCN1CCN(C(=O)Cc2c(C)n(C(=O)c3ccc(Cl)cc3)c3ccc(OC)cc23)CC1 [Compound 15]	7.41 ± 0.08	NI: 55.16%	–	–
CCOC(=O)CN1CCN(C(=O)Cc2c(C)n(C(=O)c3ccc(Cl)cc3)c3ccc(OC)cc23)CC1 [Compound 10]	4.5 ± 0.06	NI: 99.9%	–	–
C1CNCCN1 [Piperazine, reference compound]	–	–	–	% protonation state at pH = 7.5, DP: double protonation state: DP: 0.86%; % protonation state at pH = 7.5, NI: not-ionized state: NI: 0.67%; % protonation state at pH = 7.5, P: single protonation state: P: 98.48%
COc1ccc2c(c1)c(CC(=O)N1CCN(CCC(=O)N[C@H](C(=O)N3C[C@H](O)C[C@H]3C(=O)N[C@@H](C)c3ccc(-c4scnc4C)cc3)C(C)(C)C)CC1)c(C)n2C(=O)c1ccc(Cl)cc1 [PROTAC-6]	–	–	–	% protonation state at pH = 7.5, NI: not-ionized state (PROTACs): NI: 98.33%
CN1CCN(C)CC1 [1,4-Dimethylpiperazine, reference compound]	–	–	–	pKa (physchem; [1]): ~8; % protonation state at pH = 7.5, DP: double protonation state (substituted piperazines): DP: 0.02%; % protonation state at pH = 7.5, NI: not-ionized state (substituted piperazines): NI: 21.59%; % protonation state at pH = 7.5, P: single protonation state (substituted piperazines): P: 78.38%
COc1ccc2c(c1)c(CC(=O)N1CCN(CC(C)=O)CC1)c(C)n2C(=O)c1ccc(Cl)cc1 [Compound 9]	5.35 ± 0.04	–	P: 3.83%	–
CN1CCNCC1 [1-Methylpiperazine, reference compound]	–	–	–	pKa (physchem; [1]): 9.16; % protonation state at pH = 7.5, DP: double protonation state (substituted piperazines): DP: 2.13%; % protonation state at pH = 7.5, NI: not-ionized state (substituted piperazines): NI: 0.32%; % protonation state at pH = 7.5, P: single protonation state (substituted piperazines): P: 97.55%
C#CCN1CCN(C(=O)C[C@@H]2N=C(c3ccc(Cl)cc3)c3c(sc(C)c3C)-n3c(C)nnc32)CC1 [Compound 5]	4.91 ± 0.14	NI: 99.74%	P: 0.26%	–
COc1ccc2c(c1)c(CC(=O)N1CCN(CCOCCO)CC1)c(C)n2C(=O)c1ccc(Cl)cc1 [Compound 17]	6.75 ± 0.14	NI: 84.90%	P: 15.10%	–
COc1ccc2c(c1)c(CC(=O)NCCCN1CCN(CCCNC(=O)CCC(=O)N[C@H](C(=O)N3C[C@H](O)C[C@H]3C(=O)N[C@@H](C)c3ccc(-c4scnc4C)cc3)C(C)(C)C)CC1)c(C)n2C(=O)c1ccc(Cl)cc1 [PROTAC-8]	–	–	–	pKa (physchem; Experimental pKa, PROTACs, mean ± SD of 3 experiments): 3.94; % protonation state at pH = 7.5, DP: double protonation state (PROTACs): DP: 0.02%; % protonation state at pH = 7.5, NI: not-ionized state (PROTACs): NI: 32.86%
CC(=O)N1CCN(C)CC1 [1-Acetyl-4-methylpiperazine, reference compound]	–	–	–	pKa (physchem; [1]): 7.06; % protonation state at pH = 7.5, NI: not-ionized state (substituted piperazines): NI: 73.36%; % protonation state at pH = 7.5, P: single protonation state (substituted piperazines): P: 26.64%; % protonation state at pH = 7.5, NI: not-ionized state (substituted piperazines, listed as 1-acetyl-4-methylpiperazine): 73.4%
O=C(c1cc(Cc2n[nH]c(=O)c3ccccc23)ccc1F)N1CCN(Cc2ccccc2)CC1 [Compound 7]	–	NI: 97.07%	P: 2.93%	pKa (physchem; [2]): 5.98 ± 0.01
COc1ccc2c(c1)c(CC(=O)N1CCN(CCC(C)=O)CC1)c(C)n2C(=O)c1ccc(Cl)cc1 [Compound 12]	5.98 ± 0.05	NI: 97.07%	P: 2.93%	–
COC(=O)CCCCN1CCN(C(=O)Cc2c(C)n(C(=O)c3ccc(Cl)cc3)c3ccc(OC)cc23)CC1 [Compound 14]	7.07 ± 0.05	NI: 72.91%	–	–
CC(=O)N1CCNCC1 [1-Acetyl-piperazine, reference compound]	–	–	–	pKa (physchem; [1]): 8.05 ± 0.02; % protonation state at pH = 7.5, NI: not-ionized state (substituted piperazines): NI: 21.99%; % protonation state at pH = 7.5, P: single protonation state (substituted piperazines): P: 78.01%
CC(=O)CN1CCN(C(=O)c2ccc3c(c2)nc(Nc2cccc(Cl)c2)c2ccncc23)CC1 [Compound 8]	–	NI: 99.71%	P: 0.29%	–
COc1ccc2c(c1)c(CC(=O)N1CCN(CCOCCOCC(=O)N[C@H](C(=O)N3C[C@H](O)C[C@H]3C(=O)N[C@@H](C)c3ccc(-c4scnc4C)cc3)C(C)(C)C)CC1)c(C)n2C(=O)c1ccc(Cl)cc1 [PROTAC-10]	–	–	–	% protonation state at pH = 7.5, NI: not-ionized state (PROTACs): NI: 94.44%
COC(=O)CCC(=O)N1CCN(CCNC(=O)Cc2c(C)n(C(=O)c3ccc(Cl)cc3)c3ccc(OC)cc23)CC1 [Compound 16]	–	NI: 98.73%	P: 1.27%	pKa (physchem; [2]): 5.61
COc1ccc2c(c1)c(CC(=O)N1CCN(CCCC(C)=O)CC1)c(C)n2C(=O)c1ccc(Cl)cc1 [Compound 13]	6.75 ± 0.03	NI: 84.90%	P: 15.09%	–
COc1ccc2c(c1)c(CC(=O)N1CCN(C)CC1)c(C)n2C(=O)c1ccc(Cl)cc1 [Compound 4]	6.93 ± 0.03	NI: 78.79%	P: 21.20%	–
CCN1CCNCC1 [1-Ethylpiperazine, reference compound]	–	–	–	pKa (physchem; [1]): 5.04 ± 0.03; % protonation state at pH = 7.5, DP: double protonation state (substituted piperazines): DP: 2.18%; % protonation state at pH = 7.5, NI: not-ionized state (substituted piperazines): NI: 0.34%; % protonation state at pH = 7.5, P: single protonation state (substituted piperazines): P: 97.48%
Cc1sc2c(c1C)C(c1ccc(Cl)cc1)=N[C@@H](CC(=O)N1CCN(C)CC1)c1nnc(C)n1-2 [Compound 2]	7.14 ± 0.02	NI: 69.61%	P: 30.39%	–
